How the values were obtained:
[1] = biological target: Kinesin-like protein KIF11 (Homo sapiens, UniProt P52732); assay: Kinesin ATPase In Vitro Assay; details: pH 7; 23 °C
Description: The kinesin motor domain is incubated with microtubules, 1 mM ATP (1: 1 MgCl2 : Na-ATP), and compound at 23°C in buffer. After reaction was terminated, free ph osphate from the ATP hydrolysis reaction is measured via a quinaldine red/ammoni um molybdate assay. The absorbance of the phospho-molybdate complex is […] Human poly-histidine tagged KSP motor domain was cloned, and protein was expressed in E. coli.

[2] = biological target: Potassium voltage-gated channel subfamily H member 2 (Homo sapiens, UniProt Q12809); assay: hERG Radioligand Competition Assay; details: pH 7.4; 22 °C
Description: The hERG IC50 values were determined by radioligand competition experiments using membrane preparations from human embryonic kidney cells that stably express hERG.

Kinesin-like protein KIF11, sequence (P52732 whole entry, looked up, the tested form may be a part): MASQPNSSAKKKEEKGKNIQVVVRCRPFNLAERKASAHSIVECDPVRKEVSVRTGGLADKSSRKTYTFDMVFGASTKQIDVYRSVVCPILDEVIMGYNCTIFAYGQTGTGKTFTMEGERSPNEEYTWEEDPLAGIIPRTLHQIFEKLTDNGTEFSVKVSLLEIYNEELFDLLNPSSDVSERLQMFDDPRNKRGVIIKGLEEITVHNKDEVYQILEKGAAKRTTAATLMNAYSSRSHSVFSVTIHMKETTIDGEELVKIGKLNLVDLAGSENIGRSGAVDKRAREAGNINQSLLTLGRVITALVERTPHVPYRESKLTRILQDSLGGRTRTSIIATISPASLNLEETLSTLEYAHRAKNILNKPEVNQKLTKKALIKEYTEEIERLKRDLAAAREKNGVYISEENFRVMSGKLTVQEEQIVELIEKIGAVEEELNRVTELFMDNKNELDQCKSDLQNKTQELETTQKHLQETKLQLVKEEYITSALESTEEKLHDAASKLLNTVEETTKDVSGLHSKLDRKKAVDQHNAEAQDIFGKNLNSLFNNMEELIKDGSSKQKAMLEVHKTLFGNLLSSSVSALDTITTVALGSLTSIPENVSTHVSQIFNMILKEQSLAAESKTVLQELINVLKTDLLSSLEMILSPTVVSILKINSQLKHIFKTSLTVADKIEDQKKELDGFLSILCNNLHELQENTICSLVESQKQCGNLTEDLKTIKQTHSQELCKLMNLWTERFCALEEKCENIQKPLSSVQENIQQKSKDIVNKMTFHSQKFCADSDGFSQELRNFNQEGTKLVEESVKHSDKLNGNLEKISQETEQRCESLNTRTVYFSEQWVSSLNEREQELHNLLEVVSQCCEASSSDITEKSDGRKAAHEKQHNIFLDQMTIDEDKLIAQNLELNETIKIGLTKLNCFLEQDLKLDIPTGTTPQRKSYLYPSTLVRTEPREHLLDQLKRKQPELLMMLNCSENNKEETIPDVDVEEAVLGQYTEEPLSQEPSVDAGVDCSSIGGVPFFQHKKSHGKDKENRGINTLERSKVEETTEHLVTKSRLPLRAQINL
Potassium voltage-gated channel subfamily H member 2, sequence (Q12809 whole entry): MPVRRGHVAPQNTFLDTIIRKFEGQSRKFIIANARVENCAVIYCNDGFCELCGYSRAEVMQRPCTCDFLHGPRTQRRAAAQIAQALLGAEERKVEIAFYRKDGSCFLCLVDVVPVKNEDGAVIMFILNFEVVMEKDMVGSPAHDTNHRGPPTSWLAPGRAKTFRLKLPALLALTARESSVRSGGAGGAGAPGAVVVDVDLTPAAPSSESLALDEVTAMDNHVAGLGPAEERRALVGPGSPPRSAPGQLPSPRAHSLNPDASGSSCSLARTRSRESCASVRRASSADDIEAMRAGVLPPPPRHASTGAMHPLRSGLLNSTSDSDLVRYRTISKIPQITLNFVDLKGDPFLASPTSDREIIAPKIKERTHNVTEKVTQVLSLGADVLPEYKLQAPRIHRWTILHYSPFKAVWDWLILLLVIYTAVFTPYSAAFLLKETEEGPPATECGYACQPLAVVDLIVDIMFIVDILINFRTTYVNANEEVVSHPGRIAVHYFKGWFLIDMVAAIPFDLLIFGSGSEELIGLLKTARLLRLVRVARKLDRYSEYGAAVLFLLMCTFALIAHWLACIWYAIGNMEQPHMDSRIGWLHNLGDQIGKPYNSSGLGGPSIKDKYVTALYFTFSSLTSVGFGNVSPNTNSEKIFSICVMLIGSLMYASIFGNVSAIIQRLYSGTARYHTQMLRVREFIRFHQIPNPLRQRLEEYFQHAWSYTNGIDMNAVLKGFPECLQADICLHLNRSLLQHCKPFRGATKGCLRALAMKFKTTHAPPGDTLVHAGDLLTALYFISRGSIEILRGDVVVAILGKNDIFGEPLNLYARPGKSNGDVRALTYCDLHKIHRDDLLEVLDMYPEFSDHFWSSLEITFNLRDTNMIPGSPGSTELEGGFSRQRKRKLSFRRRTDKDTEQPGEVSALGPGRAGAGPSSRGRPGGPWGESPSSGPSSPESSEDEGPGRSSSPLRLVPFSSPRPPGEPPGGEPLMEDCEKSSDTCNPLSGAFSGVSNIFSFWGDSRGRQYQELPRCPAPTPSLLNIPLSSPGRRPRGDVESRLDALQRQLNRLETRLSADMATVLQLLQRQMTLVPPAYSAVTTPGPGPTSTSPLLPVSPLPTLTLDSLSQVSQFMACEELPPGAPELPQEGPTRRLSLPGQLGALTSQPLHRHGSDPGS

| Structure (SMILES) | IC50 [1] [µM] | IC50 [2] [µM] |
| --- | --- | --- |
| CNC(=O)N1N=C(c2cc(F)ccc2F)CC1c1ccccc1 (stereo not drawn) | 3.14 | – |
| CC(=O)N1N=C(c2ccccc2Cl)C[C@H]1c1cccc(O)c1 [1-[(5S)-3-(2-chlorophenyl)-5-(3-hydroxyphenyl)-4,5-dihydro-1H-pyrazol-1-yl]ethan-1-one] | 0.45 | – |
| CN(C)C(=O)N1N=C(c2cc(F)ccc2F)C[C@@]1(CCCN)c1ccccc1 [(5S)-5-(3-aminopropyl)-3-(2,5-difluorophenyl)-N,N-dimethyl-5-phenyl-4,5-dihydro-1H-pyrazole-1-carboxamide] | – | 19.3 |
